Experimental data taken from patent EP0494777A1, “(S)-11-Hydroxy-10-methyl aporphine and pharmaceutical compositions containing it” (BRITISH TECHNOLOGY GROUP LTD, priority 1991, dated 1992).

Assays:
guinea pig ileum = molecular target: T1, guinea pig ileum (Cavia porcellus, UniProt A0A286Y074); assay: Single shock stimulation of guinea pig ileum: inhibition of longitudinal muscle contractions, or antagonism of the inhibitory action of 8-OH DPAT; conditions: for washings needed to return responses to induced electrical stimulation to control levels: after inhibition of contractions
T1 sequence (A0A286Y074 1-421): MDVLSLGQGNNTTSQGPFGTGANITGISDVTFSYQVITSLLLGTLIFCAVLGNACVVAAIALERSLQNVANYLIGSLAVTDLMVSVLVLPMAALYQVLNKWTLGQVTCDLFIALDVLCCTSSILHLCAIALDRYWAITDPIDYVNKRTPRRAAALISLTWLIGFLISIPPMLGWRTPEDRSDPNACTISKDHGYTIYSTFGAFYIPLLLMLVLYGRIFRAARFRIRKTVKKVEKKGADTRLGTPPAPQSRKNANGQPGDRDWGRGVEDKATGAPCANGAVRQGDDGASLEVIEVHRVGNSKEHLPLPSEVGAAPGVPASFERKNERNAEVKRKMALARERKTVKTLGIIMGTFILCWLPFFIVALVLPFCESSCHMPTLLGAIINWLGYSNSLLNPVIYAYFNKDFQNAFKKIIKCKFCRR
Experimental: Guinea pigs were anaesthetized with 35 mg of pentobarbital Na, administered i.p. and then sacrificed. Two centimeters of ileum, 10 cm from the cecum, was placed in Krebs-Ringer solution, and longitudinal muscle contractions were measured using a Stateham GT-03 force transducer. Contractions were recorded using a Beckman R-611 recorder.

5-HT1A sites = molecular target: T2, 5-HT1A sites (Rattus norvegicus, UniProt P19327); assay: Radioligand binding vs. [³H]8-OH DPAT in rat cortex membranes
T2 construct: 5% (w/v) homogenized rat cortex; from tissue; host or cells: rat cortex membranes
T2 sequence (P19327 1-422): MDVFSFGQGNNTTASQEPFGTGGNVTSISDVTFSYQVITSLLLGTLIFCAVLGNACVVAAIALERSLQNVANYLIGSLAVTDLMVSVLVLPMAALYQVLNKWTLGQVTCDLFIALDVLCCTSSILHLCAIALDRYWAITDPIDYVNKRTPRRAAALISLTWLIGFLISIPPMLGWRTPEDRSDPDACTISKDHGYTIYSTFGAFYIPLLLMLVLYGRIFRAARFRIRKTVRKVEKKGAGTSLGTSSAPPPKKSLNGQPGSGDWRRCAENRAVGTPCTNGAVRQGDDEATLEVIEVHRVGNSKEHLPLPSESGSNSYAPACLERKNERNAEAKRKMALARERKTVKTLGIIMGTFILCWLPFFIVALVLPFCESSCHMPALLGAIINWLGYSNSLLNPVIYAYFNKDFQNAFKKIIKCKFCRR
Experimental: Binding studies to determine the affinity of both the (R) and (S) enantiomer for 5-HT1A sites were conducted as previously described by Cannon et al., ibid. Rat cortex was homogenized in ice cold solution, centrifuged to isolate the membranes, and then washed. […] Non-specific binding was defined as binding remaining in the presence of 10 µM of 5-HT. […] The results are presented below in the Table together with those obtained in the studies using guinea pig ilea.

**Q.** For `CN1C2CCC1CC(OC(=O)C(CO)c1ccccc1)C2` (racemic) [atropine sulphate, reference compound], which “effect on contractions induced by transmural single shock stimulation” value (guinea pig ileum) is on record?
**A.** Its value is “inhibited”.

**Q.** Which results are given for `Cc1ccc2c(c1O)-c1cccc3c1[C@@H](C2)N(C)CC3` [(R), (R)-11-hydroxy-10-methylaporphine, reference compound]?
**A.** Ki (5-HT1A sites): 3.1 nM; washings needed to return responses to induced electrical stimulation to control levels (guinea pig ileum): Two or three; EC50 (guinea pig ileum; read-out: Single Shock stimulation of guinea pig ileum ED50 for inhibition of contractions, transmural single shock stimulation (0.1 Hz)): 50 nM; ED50 for antagonism of inhibition of contraction by 8-OH DPAT (guinea pig ileum; single shock stimulation of guinea pig ileum, concentration of 8-OH-DPAT 0.06 μM): inactive

**Q.** Which results are given for `Cc1ccc2c(c1O)-c1cccc3c1[C@H](C2)N(C)CC3.Cl` [(S), (S)-11-Hydroxy-10-methylaporphine hydrochloride]?
**A.** Ki (5-HT1A sites): 39 nM; effect on ileum stimulating properties of nicotine (guinea pig ileum; 1 µM): did not alter; effect on ileum stimulating properties of potassium chloride (guinea pig ileum; 1 µM): did not alter; effect on resting tone of the ileum (guinea pig ileum; 1 µM): did not alter; IC50 (guinea pig ileum; read-out: ED50 for antagonism of inhibition of contraction by 8-OH DPAT, single shock stimulation of guinea pig ileum, concentration of 8-OH-DPAT 0.06 μM): 30 nM; antagonism of inhibition of contractions by the (R)-enantiomer (guinea pig ileum; single shock stimulation of cholinergic neurons): antagonized; Single Shock stimulation of guinea pig ileum ED50 for inhibition of contractions (guinea pig ileum; transmural single shock stimulation (0.1 Hz)): inactive; duration of repeated washings required to re-establish sensitivity of the preparation to the (R)-enantiomer or 8-OH DPAT (guinea pig ileum; washout): 2 to 3 h

**Q.** Which results are given for `CCCN(CCC)C1CCc2cccc(O)c2C1` (stereo not drawn) [8-OH DPAT, 8-hydroxy-2-di-n-propylaminotetralin, reference compound]?
**A.** washings needed to return responses to induced electrical stimulation to control levels (guinea pig ileum): Two or three; inhibition at 0.06 µM (guinea pig ileum; read-out: maximal inhibition of contractions induced by transmural stimulation): ~35%
